Here are results for 1 compound from patent US5654399A, “Tetrapeptide derivative having antitumor activity” (Teikoku Hormone Mfg. Co., Ltd., priority 1991, dated 1997).

Converted amounts (≈) assume the structure as drawn.

For this experiment, the system named is lymphocytic leukemia P388 cells. The experiment can be described thus: screening of cytostatic activity using lymphocytic leukemia P388 cells. The class given is cell-based. The source says: The screening of cytostatic activity was made using lymphocytic leukemia P388 cells.

`CC[C@H](C)[C@@H]([C@@H](CC(=O)N1CCC[C@H]1[C@H](OC)[C@@H](C)C(=O)N[C@@H](Cc1ccccc1)c1nccs1)OC)N(C)C(=O)[C@@H](NC(=O)[C@H](C(C)C)N(C)C)C(C)C` [Dolastatin 10] showed an ED50 of 0.7 ng/mL (≈ 0.892 nM).
